Results taken from publication PMC4942610, “Exploration of acetanilide derivatives of 1-(ω-phenoxyalkyl)uracils as novel inhibitors of Hepatitis C Virus replication” (Scientific Reports, 2016).
pIC50: −log10 of the molar value. “And” between values parts separate entries of the source, which are not always exact repeats. Identical values can stand only once. Like-named read-outs stand apart in the source and are kept apart here.

Tests used:
[1] = system: HCVcc gt 2a strain JFH-1; parameters: method as in Iro et al.[23]; conditions: Huh7-J20 reporter cells; ref Iro et al.[23]; cited from earlier work
[2] = system: Huh7-J20 cells; conditions: cited from earlier work
[3] = system: HCVcc gt 2a strain JFH-1; assay: HCVcc JFH-1 infection of Huh7-J20 reporter cells, second protocol (full life cycle), SEAP dose-response; assay type: cell-based, Hepatitis C Virus; conditions: JFH-1 HCVcc gt2a, 3 d post-infection
[4] = Cell viability assay (WST-1); conditions: human, Huh7-J20 cells
Protocol: (§3) All the drugs were tested starting from the concentration of 30 μM with 3-fold dilutions.
(§4) Huh7, Huh7-J20 and Huh7-J17 cells were tested for viability in the same conditions described for antiviral assays. Cells grown in a 96-well tissue culture plate in the presence of the drugs or DMSO control were incubated with the WST-1 reagent (Roche) for 3 h as per the manufacturer’s protocol. Cell viability was obtained reading absorbance at 450 nm with PHERAstar (BMG Labtech).

[5] = system: Huh7-J20 cells
Protocol: as §3, §4

[6] = system: gt1b (isolate Con1) subgenomic I389/NS3-3′/LucUbiMeo/ET replicon; assay: gt1b sub-genomic replicon dose-response; assay type: cell-based, Hepatitis C Virus; conditions: Huh7 cells stably harbouring the Con1 replicon, 72 h, luciferase
[7] = system: gt3a S52-WT-∆N sub-genomic replicon; assay: gt3a sub-genomic replicon dose-response; assay type: cell-based, Hepatitis C Virus; conditions: Huh7.5-SEC14L2 cells electroporated with S52-WT-∆N RNA, 72 h, luciferase
[8] = system: HCVcc JFH-1DSGCSL; assay: Viral RNA quantification after infection with adaptive mutant JFH-1DSGCSL (Protocol 3), RT-qPCR; assay type: cell-based, Hepatitis C Virus; conditions: 10 μM, Huh7 cells, Protocol 3, 72 h post-infection
Protocol: To further confirm antiviral activity, we tested Z385, Z387, Z400, and Z401 on a cell culture adaptive derivative HCV JFH-1DSGCSL strain that consistently replicates to high titres. Huh7 cells were infected with HCVcc JFH-1DSGCSL in the presence of drugs as per Protocol 3 described above and RNA was collected 72 h post-infection. Total RNA and the viral RNA were quantified as above.
Figure 5 Antiviral activity on cell-culture adaptive mutant JFH-1DSGCSL. Huh7 cells were infected following the third protocol with adaptive mutant virus and incubated for 3 d with drugs at the concentration of 10 μM. Viral RNA levels and relative SEAP activity were measured as previously described.
Huh7 Lunet-CD81 cells and their control Huh7L- H/EF cells were electroporated with 5 μg of JFH-1 RNA, seeded with drugs in a 12-well tissue culture dish and incubated for 3 d. Cellular RNA was isolated using TRI Reagent (Sigma) following manufacturer’s protocol. RNA quantification from the released viral particles was performed as below following digestion of infected cell medium with RNAse A for 2 h and RNA extraction using the RNeasy kit (Qiagen). HCV RNA quantification was carried out by RT-qPCR using TaqMan probes as reported. Briefly, 250 ng of total RNA were reverse transcribed to obtain cDNA in a 20 μl reaction using TaqMan Reverse Transcription Reagents (Life Technologies) with random hexamers, following manufacturer’s protocol. Reverse transcription was performed at 48 °C for 30 min, followed by 5 min at 85 °C. The qPCR was performed with 1.5 μl of cDNA in a 15 μl reaction mixture (TaqMan Fast Universal PCR Master Mix; Life Technologies) with 250 nM of Fw_primer (5′- […]-3′), 250 nm of Rev_primer (5′-[…]-3′) and 250 nM of TaqMan MGB (minor-groove binding) probe labelled with 6-carboxyfluorescin (5′-FAM-[…]-MGB-3′). Samples were placed in an ABI Fast 7500 instrument (Life Technologies) and were amplified using the following parameters: 95 °C for 5 minutes with cycling parameters set to 95 °C for 3 s and 60 °C for 30 s for 40 cycles. Absolute quantification was carried out using linear regression on a standard curve based on pJFH-1 serial dilution.

[9] = system: HCVcc gt 2a strain JFH-1; assay: HCVcc entry model (Protocol 1: drug only during pre-treatment and 3 h infection), SEAP; assay type: cell-based, Hepatitis C Virus; conditions: 10 μM, 1 h pre-treatment + 3 h infection, then 72 h without drug
Protocol: (§1) Reagents and conditions: a) K2CO3, DMF, room temperature, 24 h; b) MeI, NaH, DMF, 0 °C, 4 h. (B,C) Antiviral activity on HCVcc and cell viability. […] Then, inoculum was removed and cells re-fed with fresh medium. After 72 h the infected cell medium was collected and inhibitory effect was determined by measuring SEAP activity (top). Cell viability analysis was performed following same conditions with no viral infection (bottom). The values of DMSO-treated cells are expressed as 100% and those of the drug-treated cells as relative to this DMSO control. Error bars indicate standard error of the means for 3 experiments. (C) Huh7-J20 cells were infected for 3 h with JFH-1 and then treated for 3 d with drugs (10 μM) (post-entry, top) or infected for 3 h in the presence of the drugs, after a pretreatment of 1 h, and then incubated for 3 d maintaining drugs in the medium (full life cycle, centre). SEAP assay was performed on infected cell medium to determine antiviral activity. Data are presented as in (B) above. Cell viability was performed following full life cycle protocol (bottom).
(§2) To assess the effect of compounds on HCV infection, we used three protocols: Protocol 1 where Huh7-J20[23] cells were pre-treated for 1 h and exposed to the cell culture infectious HCV (HCVcc) gt 2a strain JFH-1 in the presence of 10 μM drug or equivalent DMSO (as a vehicle control) for 3 h. […]

[10] = system: HCVcc gt 2a strain JFH-1; assay: HCVcc post-entry model (Protocol 3: drug added after 3 h infection), SEAP; assay type: cell-based, Hepatitis C Virus; conditions: 10 μM, 3 d
Protocol: as §1, §2

[11] = system: SGR-JFH-luc sub-genomic replicon; assay type: cell-based, Hepatitis C Virus

| SMILES | pIC50 [3] | CC50 [5] [µM] | further results |
| --- | --- | --- | --- |
| C[C@@]1(O)[C@H](O)[C@@H](CO)O[C@H]1n1cnc2c(N)ncnc21 [2′-C-methyladenosine] |  |  | pIC50 [1]: 5.70; CC50 [2]: > 30 µM |
| O=C(Cn1c(=O)ccn(Cc2ccccc2)c1=O)Nc1ccc(Oc2ccccc2)cc1 [Z176] |  |  | pIC50 ([3]; Hepatitis C virus, 72 h): 5.87; CC50 at 3 d [4]: 17.6 µM |
| O=C(Cn1c(=O)ccn(CCCCCOc2cccc(Br)c2)c1=O)Nc1ccc(Oc2ccccc2)cc1 [Z421] | 5.94 | 44.6 |  |
| O=C(Cn1c(=O)ccn(CCCCCOc2ccc(Br)cc2)c1=O)Nc1ccc(Oc2ccc(F)cc2)cc1 [Z414] | 6.20 | 30.5 |  |
| CN(C(=O)Cn1c(=O)ccn(CCCCCOc2ccc(Br)cc2)c1=O)c1ccc(Oc2ccccc2)cc1 [Z431] |  |  | pIC50 ([3]; Hepatitis C virus, 72 h): 6.30; CC50 at 3 d [4]: 2.67 µM |
| O=C(Cn1c(=O)ccn(CCCCCOc2ccc(Br)cc2)c1=O)Nc1ccc(Cc2ccccc2)cc1 [Z387] | 6.15 | 132 | IC50 [6]: 23.3 µM; IC50 [7]: 0.94 µM; reduction of total viral RNA levels [8]: 90% |
| O=C(Cn1c(=O)ccn(CCCCOc2ccc(Br)cc2)c1=O)Nc1ccc(Oc2ccccc2)cc1 [Z397] | 5.53 | 61.1 |  |
| O=C(Cn1c(=O)ccn(CCCCCOc2ccccc2)c1=O)Nc1ccc(Oc2ccccc2)cc1 [Z436] | 5.44 | 13 |  |
| O=C(Cn1c(=O)ccn(CCCCCCc2ccccc2)c1=O)Nc1ccc(Oc2ccccc2)cc1 [Z437] | 5.53 | 14.7 |  |
| O=C(Cn1c(=O)ccn(CCCCCCCCOc2ccc(Br)cc2)c1=O)Nc1ccc(Oc2ccccc2)cc1 [Z401] | 7.04 and 7.03 | 22.6 | inhibition of virus infection (HCVcc entry) relative to DMSO [9]: 80%; antiviral activity post-entry [10]: strongly effective post-entry; IC50 [6]: 2.2 µM; IC50 [7]: 0.69 µM; reduction of total viral RNA levels [8]: 90%; antiviral activity, short treatment, 48 h post transfection [11]: 50% |
| Cc1ccc(Oc2ccc(NC(=O)Cn3c(=O)ccn(CCCCCOc4ccc(Br)cc4)c3=O)cc2)cc1 [Z413] | 6.50 | 27.4 |  |
| O=C(Cn1c(=O)ccn(CCCCCOc2ccc(Br)cc2)c1=O)Nc1ccc(Oc2ccccc2)cc1 [Z263] |  |  | pIC50 ([3]; Hepatitis C virus, 72 h): 5.51; CC50 at 3 d [4]: 56.3 µM |
| O=C(Cn1c(=O)ccn(CCCCCOc2ccc(Br)cc2)c1=O)Nc1ccc(Oc2ccc(Cl)cc2)cc1 [Z385] | 6.23 | 59.2 | IC50 [6]: 6.9 µM; IC50 [7]: 0.66 µM; reduction of total viral RNA levels [8]: 90% |
| O=C(Cn1c(=O)c(I)cn(CCCCCOc2ccc(Br)cc2)c1=O)Nc1ccc(Oc2ccccc2)cc1 [Z439] | 5.43 | 29.7 |  |
| O=C(Cn1c(=O)ccn(CCCCOCc2ccc(Br)cc2)c1=O)Nc1ccc(Oc2ccccc2)cc1 [Z432] | 5.89 | 19.2 | increase in cytotoxicity compared to Z263 [5]: ~3 fold |
| N#Cc1ccc(OCCCCCn2ccc(=O)n(CC(=O)Nc3ccc(Oc4ccccc4)cc3)c2=O)cc1 [Z434] | 5.73 | 10.5 |  |
| O=C(Cn1c(=O)ccn(CCCCCCOc2ccc(Br)cc2)c1=O)Nc1ccc(Oc2ccccc2)cc1 [Z400] | 6.61 | 66.5 | IC50 [6]: 12.6 µM; IC50 [7]: 1.1 µM; reduction of total viral RNA levels [8]: 90% |
| Cc1cn(CCCCCOc2ccc(Br)cc2)c(=O)n(CC(=O)Nc2ccc(Oc3ccccc3)cc2)c1=O [Z376] |  | 69.2 |  |
| O=C(Cn1c(=O)ccn(CCCCCOc2ccc(Br)cc2)c1=O)Nc1ccc(OCc2ccccc2)cc1 [Z377] | 5.53 | 18.4 |  |
| O=C(Cn1c(=O)ccn(CCCCCOc2ccc(-c3ccccc3)cc2)c1=O)Nc1ccc(Oc2ccccc2)cc1 [Z438] | 5.76 | 9.6 |  |
| O=C(Cn1c(=O)ccn(CCCCCOc2ccc(Br)cc2)c1=O)Nc1ccc(C(=O)c2ccccc2)cc1 [Z430] | 6.03 | 11.5 |  |
